Data as given in ChEMBL document CHEMBL3046620, “Resistance monitoring to deltamethrin and chlorpyriphos-ethyl in 13 populations of Typhlodromus pyri Scheuten (Acari: Phytoseiidae) from vineyards in the southwest of France” (2008).

Tests used:
Type in all cases: functional
[1] = system: Typhlodromus pyri; assay: Miticidal activity against compound treated Phaseolus vulgaris leaf-fed female Typhlodromus pyri Scheuten 13 assessed as mortality at 17.5 mg/l sprayed on leaf disks measured after 3 days; details: Scheuten 13, foliar, 72 h
[2] = system: Typhlodromus pyri; assay: Miticidal activity against compound treated Phaseolus vulgaris leaf-fed female Typhlodromus pyri Scheuten 12 assessed as mortality at 17.5 mg/l sprayed on leaf disks measured after 3 days; details: Scheuten 12, foliar, 72 h
[3] = system: Typhlodromus pyri; assay: Miticidal activity against compound treated Phaseolus vulgaris leaf-fed female Typhlodromus pyri Scheuten 11 assessed as mortality at 17.5 mg/l sprayed on leaf disks measured after 3 days; details: Scheuten 11, foliar, 72 h
[4] = system: Typhlodromus pyri; assay: Miticidal activity against compound treated Phaseolus vulgaris leaf-fed female Typhlodromus pyri Scheuten 10 assessed as mortality at 17.5 mg/l sprayed on leaf disks measured after 3 days; details: Scheuten 10, foliar, 72 h
[5] = system: Typhlodromus pyri; assay: Miticidal activity against compound treated Phaseolus vulgaris leaf-fed female Typhlodromus pyri Scheuten 9 assessed as mortality at 17.5 mg/l sprayed on leaf disks measured after 3 days; details: Scheuten 9, foliar, 72 h
[6] = system: Typhlodromus pyri; assay: Miticidal activity against compound treated Phaseolus vulgaris leaf-fed female Typhlodromus pyri Scheuten 8 assessed as mortality at 17.5 mg/l sprayed on leaf disks measured after 3 days; details: Scheuten 8, foliar, 72 h
[7] = system: Typhlodromus pyri; assay: Miticidal activity against compound treated Phaseolus vulgaris leaf-fed female Typhlodromus pyri Scheuten 7 assessed as mortality at 17.5 mg/l sprayed on leaf disks measured after 3 days; details: Scheuten 7, foliar, 72 h
[8] = system: Typhlodromus pyri; assay: Miticidal activity against compound treated Phaseolus vulgaris leaf-fed female Typhlodromus pyri Scheuten 6 assessed as mortality at 17.5 mg/l sprayed on leaf disks measured after 3 days; details: Scheuten 6, foliar, 72 h
[9] = system: Typhlodromus pyri; assay: Miticidal activity against compound treated Phaseolus vulgaris leaf-fed female Typhlodromus pyri Scheuten 5 assessed as mortality at 17.5 mg/l sprayed on leaf disks measured after 3 days; details: Scheuten 5, foliar, 72 h
[10] = system: Typhlodromus pyri; assay: Miticidal activity against compound treated Phaseolus vulgaris leaf-fed female Typhlodromus pyri Scheuten 4 assessed as mortality at 17.5 mg/l sprayed on leaf disks measured after 3 days; details: Scheuten 4, foliar, 72 h
[11] = system: Typhlodromus pyri; assay: Miticidal activity against compound treated Phaseolus vulgaris leaf-fed female Typhlodromus pyri Scheuten 3 assessed as mortality at 17.5 mg/l sprayed on leaf disks measured after 3 days; details: Scheuten 3, foliar, 72 h
[12] = system: Typhlodromus pyri; assay: Miticidal activity against compound treated Phaseolus vulgaris leaf-fed female Typhlodromus pyri Scheuten 2 assessed as mortality at 17.5 mg/l sprayed on leaf disks measured after 3 days; details: Scheuten 2, foliar, 72 h
[13] = system: Typhlodromus pyri; assay: Miticidal activity against compound treated Phaseolus vulgaris leaf-fed female Typhlodromus pyri Scheuten 1 assessed as mortality at 17.5 mg/l sprayed on leaf disks measured after 3 days; details: Scheuten 1, foliar, 72 h
[14] = system: Typhlodromus pyri; assay: Miticidal activity against compound treated Phaseolus vulgaris leaf-fed female Typhlodromus pyri Scheuten 11 assessed as mortality at 855 mg/l sprayed on leaf disks measured after 3 days; details: Scheuten 11, foliar, 72 h
[15] = system: Typhlodromus pyri; assay: Miticidal activity against compound treated Phaseolus vulgaris leaf-fed female Typhlodromus pyri Scheuten 10 assessed as mortality at 855 mg/l sprayed on leaf disks measured after 3 days; details: Scheuten 10, foliar, 72 h
[16] = system: Typhlodromus pyri; assay: Miticidal activity against compound treated Phaseolus vulgaris leaf-fed female Typhlodromus pyri Scheuten 9 assessed as mortality at 855 mg/l sprayed on leaf disks measured after 3 days; details: Scheuten 9, foliar, 72 h
[17] = system: Typhlodromus pyri; assay: Miticidal activity against compound treated Phaseolus vulgaris leaf-fed female Typhlodromus pyri Scheuten 8 assessed as mortality at 855 mg/l sprayed on leaf disks measured after 3 days; details: Scheuten 8, foliar, 72 h
[18] = system: Typhlodromus pyri; assay: Miticidal activity against compound treated Phaseolus vulgaris leaf-fed female Typhlodromus pyri Scheuten 7 assessed as mortality at 855 mg/l sprayed on leaf disks measured after 3 days; details: Scheuten 7, foliar, 72 h
[19] = system: Typhlodromus pyri; assay: Miticidal activity against compound treated Phaseolus vulgaris leaf-fed female Typhlodromus pyri Scheuten 6 assessed as mortality at 855 mg/l sprayed on leaf disks measured after 3 days; details: Scheuten 6, foliar, 72 h
[20] = system: Typhlodromus pyri; assay: Miticidal activity against compound treated Phaseolus vulgaris leaf-fed female Typhlodromus pyri Scheuten 5 assessed as mortality at 855 mg/l sprayed on leaf disks measured after 3 days; details: Scheuten 5, foliar, 72 h
[21] = system: Typhlodromus pyri; assay: Miticidal activity against compound treated Phaseolus vulgaris leaf-fed female Typhlodromus pyri Scheuten 4 assessed as mortality at 855 mg/l sprayed on leaf disks measured after 3 days; details: Scheuten 4, foliar, 72 h
[22] = system: Typhlodromus pyri; assay: Miticidal activity against compound treated Phaseolus vulgaris leaf-fed female Typhlodromus pyri Scheuten 3 assessed as mortality at 855 mg/l sprayed on leaf disks measured after 3 days; details: Scheuten 3, foliar, 72 h
[23] = system: Typhlodromus pyri; assay: Miticidal activity against compound treated Phaseolus vulgaris leaf-fed female Typhlodromus pyri Scheuten 2 assessed as mortality at 855 mg/l sprayed on leaf disks measured after 3 days; details: Scheuten 2, foliar, 72 h
[24] = system: Typhlodromus pyri; assay: Miticidal activity against compound treated Phaseolus vulgaris leaf-fed female Typhlodromus pyri Scheuten 1 assessed as mortality at 855 mg/l sprayed on leaf disks measured after 3 days; details: Scheuten 1, foliar, 72 h
[25] = system: Typhlodromus pyri; assay: Miticidal activity against compound treated Phaseolus vulgaris leaf-fed female Typhlodromus pyri Scheuten 13 assessed as mortality at 855 mg/l sprayed on leaf disks measured after 3 days; details: Scheuten 13, foliar, 72 h
[26] = system: Typhlodromus pyri; assay: Miticidal activity against compound treated Phaseolus vulgaris leaf-fed female Typhlodromus pyri Scheuten 12 assessed as mortality at 855 mg/l sprayed on leaf disks measured after 3 days; details: Scheuten 12, foliar, 72 h

`CC1(C)[C@H](C(=O)O[C@H](C#N)c2cccc(Oc3ccccc3)c2)[C@@H]1C=C(Br)Br` [DELTAMETHRIN] showed a mortality at 17.5 µg/mL [1] of 75%, a mortality at 17.5 µg/mL [2] of 20.6% and a mortality at 17.5 µg/mL [3] of 62.9%. It also gave a mortality at 17.5 µg/mL [4] of 100%, a mortality at 17.5 µg/mL [5] of 74% and a mortality at 17.5 µg/mL [6] of 31.2%. It also gave a mortality at 17.5 µg/mL [7] of 23.6%, a mortality at 17.5 µg/mL [8] of 5.3% and a mortality at 17.5 µg/mL [9] of 86.1%. The mortality at 17.5 µg/mL [10] was 84.3%, the mortality at 17.5 µg/mL [11] was 61.8% and the mortality at 17.5 µg/mL [12] was 92%. The mortality at 17.5 µg/mL [13] was 90.2%.
Compound `CCOP(=S)(OCC)Oc1nc(Cl)c(Cl)cc1Cl` [CHLORPYRIFOS] has a mortality at 855 µg/mL [14] of 10.4%, a mortality at 855 µg/mL [15] of 55.5% and a mortality at 855 µg/mL [16] of 74%. The mortality at 855 µg/mL [17] was 25.9%, the mortality at 855 µg/mL [18] was 40.9% and the mortality at 855 µg/mL [19] was 7.6%. It also gave a mortality at 855 µg/mL [20] of 8.3%, a mortality at 855 µg/mL [21] of 56.2% and a mortality at 855 µg/mL [22] of 23.6%. The mortality at 855 µg/mL [23] was 33.3%, the mortality at 855 µg/mL [24] was 41.1% and the mortality at 855 µg/mL [25] was 32.5%. The mortality at 855 µg/mL [26] was 7.9%.
